# Source: patent US10799478B2, “Treatment of androgen deprivation therapy associated symptoms” (priority 2014, dated 2020)
# What was measured:
# CD [Crl:CD (SD)] rats = experiment: Four Week Oral Toxicity Study in Rats; assay type: in vivo, rat; conditions: for decrease in albumin / decrease in total protein / increase in alkaline phosphatase: females
# Description: (§1) Three treatment groups of 10 male and 10 female CD® [Crl:CD® (SD)] rats are administered the test article at respective dose levels of 15, 150, and 1500 mg/kg/day. […] The test article or vehicle is administered to all groups via oral gavage, once a day for 28 consecutive days, at a dose volume of 15 mL/kg. Additionally, three groups of 18 animals/sex/group serves as toxicokinetic (TK) animals and receives the test article in the same manner and dose volume as the main study groups at respective dose levels of 15, 150, and 1500 mg/kg/day. One additional group of three animals/sex serves as the toxicokinetic control and receives the vehicle in the same manner and dose volume as the treated groups.
# (§2) Observations for morbidity, mortality, injury, and the availability of food and water are conducted twice daily for all animals. Observations for clinical signs are conducted weekly for main study animals only. Body weights were measured and recorded weekly for all animals and food consumption is measured and recorded weekly for main study animals. Ophthalmoscopic examinations are conducted pretest on all animals and prior to terminal necropsy for main study animals only. Blood samples for clinical pathology evaluations are collected from all main study animals at necropsy. Urine samples are collected on the last day of dosing. Blood samples for determination of the plasma concentrations of the test article are collected from TK animals at designated time points on Days 1 and 28. After the final blood collection, the TK animals are euthanized and the carcasses are discarded without further evaluation. Liver samples for hepatic enzyme induction analysis are collected at terminal necropsy from main study animals. At study termination, necropsy examinations are performed, organ weights are recorded, and prostate and seminal vesicle tissues are microscopically examined. Additional microscopic examination is performed on the left testis from the first five male rats/group at necropsy.
# [1] = Four Week Oral Toxicity Study in Rats; assay type: in vivo, rat; conditions: CD [Crl:CD (SD)], rat
# Description: as §1, §2
# [2] = test system: LnCAP human prostate cancer cells; experiment: LnCAP Gene Expression; assay type: cell-based
smiles,measurement,setting,value
"CC(C)OC(=O)N[C@H]1Cc2c(n(Cc3ccccn3)c3ccc(C#N)cc23)C1 (single isomer, unassigned) [Example 1]",systemic exposure (AUC0-24 hr) increase with dose,"CD [Crl:CD (SD)] rats; 15, 150, 1500 mg/kg/day oral gavage",less-than-dose-proportional
same,unscheduled deaths,"CD [Crl:CD (SD)] rats; 15-1500 mg/kg/day, 28 days",no unscheduled deaths
same,decrease in albumin,CD [Crl:CD (SD)] rats; 150 mg/kg/day,12%
same,decrease in total protein,CD [Crl:CD (SD)] rats; 150 mg/kg/day,9%
same,increase in alkaline phosphatase,CD [Crl:CD (SD)] rats; 150 mg/kg/day,1.33 fold
same,decrease in albumin,CD [Crl:CD (SD)] rats; 1500 mg/kg/day,12%
same,decrease in total protein,CD [Crl:CD (SD)] rats; 1500 mg/kg/day,10%
same,increase in alkaline phosphatase,CD [Crl:CD (SD)] rats; 1500 mg/kg/day,1.45 fold
same,hepatic microsomal enzyme induction,CD [Crl:CD (SD)] rats; following 28 days of dosing,no evidence
same,NOAEL at 28 days,"[1]; both sexes, in vivo, 4 weeks oral gavage, highest dose administered",1500 mg/kg/day
same,AUC(0-t),"[1]; female, plasma, oral, females, 1500 mg/kg/day, read-out: Mean steady-state systemic exposure (AUC0-24 hr)",217 µg·h/mL
same,EC50,"[2]; Homo sapiens, LNCaP, AR gene, read-out: LnCAP Gene Expression EC50 (nM) AR",1.64 nM
same,androgenicity in vitro in human prostate cancer cells,[2]; comparison with R1881,less androgenic than R1881
